Earlier results on three compounds are cited in patent US11498743B2, “Cardboard container for active packaging of fresh fruit and vegetables and production method of same” (Universidad Politecnica de Cartagena, priority 2016, dated 2022).

In the case of `OC[C@H]1O[C@@H]2O[C@H]3[C@H](O)[C@@H](O)[C@@H](O[C@H]4[C@H](O)[C@@H](O)[C@@H](O[C@H]5[C@H](O)[C@@H](O)[C@@H](O[C@H]6[C@H](O)[C@@H](O)[C@@H](O[C@H]7[C@H](O)[C@@H](O)[C@@H](O[C@H]1[C@H](O)[C@H]2O)O[C@@H]7CO)O[C@@H]6CO)O[C@@H]5CO)O[C@@H]4CO)O[C@@H]3CO` [α-CD, alpha-cyclodextrin], the “Half-life in 1M HCl at 60° C.” value is 6.2 h.

As to `OC[C@H]1O[C@@H]2O[C@H]3[C@H](O)[C@@H](O)[C@@H](O[C@H]4[C@H](O)[C@@H](O)[C@@H](O[C@H]5[C@H](O)[C@@H](O)[C@@H](O[C@H]6[C@H](O)[C@@H](O)[C@@H](O[C@H]7[C@H](O)[C@@H](O)[C@@H](O[C@H]8[C@H](O)[C@@H](O)[C@@H](O[C@H]1[C@H](O)[C@H]2O)O[C@@H]8CO)O[C@@H]7CO)O[C@@H]6CO)O[C@@H]5CO)O[C@@H]4CO)O[C@@H]3CO` [β-CD, beta-cyclodextrin], the “Half-life in 1M HCl at 60° C.” value is recorded as 5.4 h.

Turning to `OC[C@H]1O[C@@H]2O[C@H]3[C@H](O)[C@@H](O)[C@@H](O[C@H]4[C@H](O)[C@@H](O)[C@@H](O[C@H]5[C@H](O)[C@@H](O)[C@@H](O[C@H]6[C@H](O)[C@@H](O)[C@@H](O[C@H]7[C@H](O)[C@@H](O)[C@@H](O[C@H]8[C@H](O)[C@@H](O)[C@@H](O[C@H]9[C@H](O)[C@@H](O)[C@@H](O[C@H]1[C@H](O)[C@H]2O)O[C@@H]9CO)O[C@@H]8CO)O[C@@H]7CO)O[C@@H]6CO)O[C@@H]5CO)O[C@@H]4CO)O[C@@H]3CO` [γ-CD, gamma-cyclodextrin], the “Half-life in 1M HCl at 60° C.” value is given as 3.0 h.
